The values that follow come from patent US20220056043A1, “NITROGEN-CONTAINING FUSED CYCLIC COMPOUND, PREPARATION METHOD THEREFOR AND USE THEREOF” (SICHUAN KELUN-BIOTECH BIOPHARMACEUTICAL CO., LTD., priority 2019, published 2022).

Assay [1] addresses T1, hTLR8 (Homo sapiens, UniProt Q9NR97).
T1 construct: host or cells: HEK-Blue hTLR8 cells
T1 sequence (Q9NR97 27-1041): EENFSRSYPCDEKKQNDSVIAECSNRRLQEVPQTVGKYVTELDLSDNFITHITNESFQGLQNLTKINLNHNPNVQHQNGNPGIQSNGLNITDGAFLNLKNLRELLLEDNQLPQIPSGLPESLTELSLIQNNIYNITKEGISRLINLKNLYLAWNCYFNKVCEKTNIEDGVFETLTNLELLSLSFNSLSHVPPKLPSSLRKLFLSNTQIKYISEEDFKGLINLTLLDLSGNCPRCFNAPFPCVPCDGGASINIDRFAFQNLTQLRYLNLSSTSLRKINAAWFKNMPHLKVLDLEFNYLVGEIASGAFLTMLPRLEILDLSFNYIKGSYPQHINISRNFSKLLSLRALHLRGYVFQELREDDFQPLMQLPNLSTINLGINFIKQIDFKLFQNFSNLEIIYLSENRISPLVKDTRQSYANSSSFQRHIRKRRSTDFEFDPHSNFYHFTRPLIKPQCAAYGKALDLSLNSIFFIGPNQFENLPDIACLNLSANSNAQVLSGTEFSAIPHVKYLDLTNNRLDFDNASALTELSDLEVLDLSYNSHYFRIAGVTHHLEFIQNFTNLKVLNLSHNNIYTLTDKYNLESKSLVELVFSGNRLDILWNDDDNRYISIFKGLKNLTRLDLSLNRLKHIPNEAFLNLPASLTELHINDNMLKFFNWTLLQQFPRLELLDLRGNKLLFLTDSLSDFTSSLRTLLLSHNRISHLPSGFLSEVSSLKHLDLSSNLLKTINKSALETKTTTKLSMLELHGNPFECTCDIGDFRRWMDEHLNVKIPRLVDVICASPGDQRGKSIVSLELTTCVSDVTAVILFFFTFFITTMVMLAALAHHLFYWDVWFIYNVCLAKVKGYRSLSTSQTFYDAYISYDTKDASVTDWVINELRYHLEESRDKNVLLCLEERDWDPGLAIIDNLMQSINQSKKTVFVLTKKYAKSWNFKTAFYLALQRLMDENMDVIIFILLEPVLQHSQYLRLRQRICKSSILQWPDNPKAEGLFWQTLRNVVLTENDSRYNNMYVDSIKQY
In words: Agonistic effect on hTLR8, HEK-Blue hTLR8 cells, alkaline phosphatase secretion. The note with it: 16 hours. The format is cell-based. As to the method:
Experimental Example 4: Agonistic Effect of the Compound of the Invention on hTLR8
In this test, the secretion of alkaline phosphatase in HEK-Blue cells was measured to test the activating effect of the compound of the invention on TLR8 signaling pathway, so as to evaluate the specificity of the agonistic effect of the compound on NLRP3 pathway.
Reagents: DMEM (High glucose); FBS (fetal bovine serum) (Gibco); QUANTI-Blue/InvivoGen/rep-qb2
Cells: HEK-Blue™ hTLR8 cells (human TLR 8 cells) (InvivoGen) Experimental Procedures:
1) The HEK-Blue™ hTLR8 cells in a logarithmic growth phase were trypsinized and resuspended in the medium to a concentration of 2×10^6 cells/mL. 50 μL/well of the cell suspension was added to a 96-well plate. An appropriate amount of 10 mM DMSO solution of the compound to be tested was taken and diluted to a concentration of 2× test concentration with the medium. 50 μL/well was added to the cells in the 96-well plate. The plate was incubated in an incubator at 37° C. and 5% CO2 for 16 hours. The medium was DMEM (High glucose) containing 10% FBS. 2) After the cell incubation, 10 μL of cell culture supernatant was transferred to a 96-well plate. 90 μL/well of QUANTI-Blue detection solution was added, and the mixture was incubated at 37° C. for 3 hours. OD620 was read using a microplate reader.
3) The EC50 of the effect of the tested compound to stimulate hTLR8 was fitted by the GraphPad software log(agonist) vs. response—Variable slope four-parameter method.

For assay [2], the system named is THP1-defNLRP3 cells. In words: Agonistic effect on the expression of IL-1β in NLRP3 deficient THP1 cells (THP1-defNLRP3) after PMA-induced differentiation (HTRF). The following applies: Homo sapiens, THP-1; IL-1β level, PMA-differentiated NLRP3 deficient THP1 cells, 6 hours; highest test concentration 30 μM; read-out: hNLRP3 EC50 (μM) (THP-1defNLRP3). Format: cell-based, human. The source says: Experimental Example 2: Agonistic Effect of the Compound of the Invention on the Expression of IL-1β in NLRP3 Deficient THP1 Cells (THP1-defNLRP3 Cells) after PMA-Induced Differentiation
In this test, a HTRF detection method was used to test the effect of the compound of the invention on the level of IL-1β in THP1-defNLRP3 cells to evaluate the specificity of the agonistic effect of the compound on hNLRP3 inflammasome or hNLRP3 inflammasome pathway.
Reagents: as described in Experimental Example 1
Cell: THP1-defNLRP3 (InvivoGen)
Kit: IL-1β assay kit (CISBIO)
1) THP1-defNLRP3 cells in a logarithmic growth phase were seeded in a T75 culture flask at a density of 5×10^5 cells/well, and cultured in a cell incubator at 37° C., 5% CO2 for 24 hours, and then 1 μM PMA was used to induce THP1-defNLRP3 suspension cells to become adherent macrophages. The medium was RPMI 1640 containing 10% heat-inactivated FBS and 0.05 mM β-mercaptoethanol.
2) The cells were induced and cultured for 24 hours. Then the adherent cells were trypsinized and centrifuged at 1000 rpm for 5 min. The supernatant was removed, and the cells were resuspended to a density of 2×10^6 cells/mL in RPMI 1640 medium containing 2% heat-inactivated FBS. 50 μL/well of the cell resuspension was taken and spread on a 96-well plate such that the number of cells in each well was 1×10^5.
3) An appropriate amount of 10 mM DMSO solution of the compound to be tested was taken and diluted to a concentration of 2× test concentration with RPMI 1640 medium containing 2% heat-inactivated FBS. 50 μL/well of the dilution was added to the cells in the 96-well plate, and mixed well. The plate was incubated in a cell incubator at 37° C., 5% CO2 for 6 hours. The supernatant was collected, and the level of IL-1β was measured in accordance with the instructions of the IL-1β detection kit.
4) EC50 was fitted by the GraphPad software log(agonist) vs. response—Variable slope four-parameter method.
Background: TR-FRET usually uses a lanthanide donor and a delayed reading to cut background.

A word on the EC50: it is the concentration giving half of the maximal effect.

Molecules are shown by their SMILES. Counter-ions that a name gives are not always drawn.

As for `Nc1cc(N[C@H]2CC[C@H](O)C2)c2sc(-c3ccn[nH]3)cc2n1` [Compound 26, (1S,3S)-3-((5-amino-2-(1H-pyrazol-5-yl)thieno[3,2-b]pyridin-7-yl)amino)cyclopentanol], the EC50 in assay [1] was above 100 µM; in assay [2], above 30 µM.
In the case of `Nc1cc(N[C@@H]2CC[C@@H](O)C2)c2sc(-c3ccn[nH]3)cc2n1` [Compound 30s, (1R,3R)-3-((5-amino-2-(1H-pyrazol-5-yl)thieno[3,2-b]pyridin-7-yl)amino)cyclopentanol hydrochloride], the values for the EC50 in assay [1] and in assay [2] were above 100 µM and above 30 µM, respectively.
As for `Nc1cc(N[C@@H]2CC[C@H](O)C2)c2sc(-c3ccn[nH]3)cc2n1` [Compound 31, (1S,3R)-3-((5-amino-2-(1H-pyrazol-5-yl)thieno[3,2-b]pyridin-7-yl)amino)cyclopentanol], the concentration for a half-maximal effect (EC50) in assay [1] is above 100 µM; in assay [2], above 30 µM.
Take `C[C@H](O)CNc1cc(N)nc2cc(-c3ccn[nH]3)sc12` [Compound 33]: the EC50 in assay [1] is above 100 µM; in assay [2] it was above 30 µM.
Turning to `Nc1cc(NC2CC(O)C2)c2sc(-c3ccn[nH]3)cc2n1` (stereo not shown) [Compound 40, 3-((5-amino-2-(1H-pyrazol-5-yl)thieno[3,2-b]pyridin-7-yl)amino)cyclobutanol], the EC50 is above 100 µM in assay [1] and above 30 µM in assay [2].
Take `CN1CC[C@H](Nc2cc(N)nc3cc(-c4ccn[nH]4)sc23)C1` [Compound 51, (S)—N^7-(1-methylpyrrolidin-3-yl)-2-(1H-pyrazol-5-yl)thieno[3,2-b]pyridine-5,7-diamine]: the EC50 in assay [1] was above 100 µM; in assay [2], above 30 µM.
For `CC(=O)NCCNc1cc(N)nc2cc(-c3ccn[nH]3)sc12` [Compound 52], in that order: above 100 µM and above 30 µM.
In the case of `CC(=O)NCCCNc1cc(N)nc2cc(-c3ccn[nH]3)sc12` [Compound 53], the EC50 in assay [1] is above 100 µM; in assay [2], above 30 µM.
As to `CN1CCN(CCCNc2cc(N)nc3cc(-c4ccn[nH]4)sc23)CC1` [Compound 54, N^7-(3-(4-methylpiperazin-1-yl)propyl)-2-(1H-pyrazol-5-yl)thieno[3,2-b]pyridine-5,7-diamine], the figures for the EC50 in assay [1] and in assay [2] were above 100 µM and above 30 µM, respectively.
As to `Nc1cc(NCCN2CCOCC2)c2sc(-c3ccn[nH]3)cc2n1` [Compound 55, N^7-(2-morpholinoethyl)-2-(1H-pyrazol-5-yl)thieno[3,2-b]pyridine-5,7-diamine], the EC50 was above 100 µM in assay [1] and above 30 µM in assay [2].
Take `CN1CCN(CCNc2cc(N)nc3cc(-c4ccn[nH]4)sc23)CC1` [Compound 57, N^7-(2-(4-methylpiperazin-1-yl)ethyl)-2-(1H-pyrazol-5-yl)thieno[3,2-b]pyridine-5,7-diamine]: the EC50 in assay [1] was above 100 µM; in assay [2], above 30 µM.
Take `Nc1cc(NCCCNC(=O)C2CC2)c2sc(-c3ccn[nH]3)cc2n1` [Compound 58]: the figures for the EC50 in assay [1] and in assay [2] were above 100 µM and above 30 µM, respectively.
For `Nc1cc(NCc2ccccn2)c2sc(-c3ccn[nH]3)cc2n1` [Compound 59, 2-(1H-pyrazol-5-yl)-N^7-(pyridin-2-ylmethyl)thieno[3,2-b]pyridine-5,7-diamine], in that order: above 100 µM and above 30 µM.
As to `Cn1ccc(CNc2cc(N)nc3cc(-c4ccn[nH]4)sc23)n1` [Compound 60, N^7-(1-methyl-1H-pyrazol-3-yl)methyl-2-(1H-pyrazol-5-yl)thieno[3,2-b]pyridine-5,7-diamine], the EC50 was above 100 µM in assay [1] and above 30 µM in assay [2].
For the compound `Nc1cc(NC2CCOC2)c2sc(-c3ccn[nH]3)cc2n1` (stereo not shown) [Compound 61, 2-(1H-pyrazol-5-yl)-N^7-(tetrahydrofuran-3-yl)thieno[3,2-b]pyridine-5,7-diamine], the 50% effective concentration (EC50) is above 100 µM in assay [1] and above 30 µM in assay [2].
With `CC1CN(CCNc2cc(N)nc3cc(-c4ccn[nH]4)sc23)CC(C)O1` (stereo not shown) [Compound 62], the EC50 is above 100 µM in assay [1] and above 30 µM in assay [2].
Turning to `Cn1cnc(CNc2cc(N)nc3cc(-c4ccn[nH]4)sc23)c1` [Compound 63, N^7-(1-methyl-1H-imidazol-4-yl)methyl-2-(1H-pyrazol-5-yl)thieno[3,2-b]pyridine-5,7-diamine], the EC50 was above 100 µM in assay [1] and above 30 µM in assay [2].
As for `Nc1cc(NCCNC(=O)C2CC2)c2sc(-c3ccn[nH]3)cc2n1` [Compound 64], the EC50 in assay [1] was above 100 µM; in assay [2] it was above 30 µM.
Regarding `CC(=O)N(C)CCNc1cc(N)nc2cc(-c3ccn[nH]3)sc12` [Compound 73, N-(2-((5-amino-2-(1H-pyrazol-5-yl)thieno[3,2-b]pyridin-7-yl)amino)ethyl)-N-methylethanamide], the EC50 in assay [1] is above 100 µM; in assay [2] it was above 30 µM.
Regarding `CC(=O)N(C)CCCNc1cc(N)nc2cc(-c3ccn[nH]3)sc12` [Compound 74, N-(3-((5-amino-2-(1H-pyrazol-5-yl)thieno[3,2-b]pyridin-7-yl)amino)propyl)-N-methylacetamide], the EC50 is above 100 µM in assay [1] and above 30 µM in assay [2].
As to `CN(CCNc1cc(N)nc2cc(-c3ccn[nH]3)sc12)C(=O)C1CC1` [Compound 75, N-(2-((5-amino-2-(1H-pyrazol-5-yl)thieno[3,2-b]pyridin-7-yl)amino)ethyl)-N-methylcyclopropionamide], the half-maximal effective concentration (EC50) in assay [1] was above 100 µM; in assay [2], above 30 µM.
Consider `CN(CCCNc1cc(N)nc2cc(-c3ccn[nH]3)sc12)C(=O)C1CC1` [Compound 76, N-(3-((5-amino-2-(1H-pyrazol-5-yl)thieno[3,2-b]pyridin-7-yl)amino)propyl)-N-methylcyclopropane formamide], for which the figures for the EC50 in assay [1] and in assay [2] were above 100 µM and above 30 µM, respectively.
`CCC(=O)N(C)CCNc1cc(N)nc2cc(-c3ccn[nH]3)sc12` [Compound 88, N-(2-((5-amino-2-(1H-pyrazol-5-yl)thieno[3,2-b]pyridin-7-yl)amino)ethyl)-N-methylpropionamide]: the EC50 in assay [1] was above 100 µM; in assay [2] it was above 30 µM.
